Reference: patent publication US11161856B2 (H. Lundbeck A/S, priority 2017, dated 2021)

Legend:
Format in all cases: biochemical
MAGL = target: T1, MAGL (Homo sapiens, UniProt Q99685); experiment: In vitro competitive activity-based protein profiling (FP-Rh or HT-01 probe, gel-based); parameters: IC50 MGLL PC3 (Human, μM) / IC50 MGLL PFC (Human, μM): scale not given here; details: for % Inh MGLL PFC (Human, μM) / % Inh MGLL PC3 (Human, μM): concentration not given (μM)
T1 construct: Proteomes (human prefrontal cortex or cell membrane fractions); from tissue
T1 sequence (Q99685 1-303): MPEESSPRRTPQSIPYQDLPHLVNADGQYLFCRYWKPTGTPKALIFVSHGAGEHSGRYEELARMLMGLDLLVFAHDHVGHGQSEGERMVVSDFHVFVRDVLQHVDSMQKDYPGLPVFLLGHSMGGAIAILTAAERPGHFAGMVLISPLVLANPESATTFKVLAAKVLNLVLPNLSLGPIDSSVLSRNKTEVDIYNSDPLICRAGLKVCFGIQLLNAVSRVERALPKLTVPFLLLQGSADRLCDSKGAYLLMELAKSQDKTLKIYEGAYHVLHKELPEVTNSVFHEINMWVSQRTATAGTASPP
Outline: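 Human prefrontal cortex or cell membrane proteomes (1.0 mg/mL total protein) were preincubated with varying inhibitor concentrations for 30 min at 37° C. FP-Rh or HT-01 probe (50 μM DMSO stock) was then added for 30 min at room temperature, and samples were quenched in SDS loading buffer and resolved by SDS-PAGE.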

MGLL = target: T2, MGLL (Mus musculus, UniProt O35678); experiment: In vitro competitive activity-based protein profiling, mouse brain proteome (MGLL); details: concentration not given (μM)
T2 construct: Brain; from tissue; host or cells: mouse brain proteome
T2 sequence (O35678 1-303): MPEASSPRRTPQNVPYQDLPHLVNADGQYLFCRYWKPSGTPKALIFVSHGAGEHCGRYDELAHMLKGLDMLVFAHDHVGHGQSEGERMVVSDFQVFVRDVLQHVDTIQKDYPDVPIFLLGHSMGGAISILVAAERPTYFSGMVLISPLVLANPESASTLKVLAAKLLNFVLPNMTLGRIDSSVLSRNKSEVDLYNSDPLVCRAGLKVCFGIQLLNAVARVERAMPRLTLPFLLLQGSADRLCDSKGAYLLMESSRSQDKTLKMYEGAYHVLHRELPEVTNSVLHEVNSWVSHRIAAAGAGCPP

ABHD6 = target: T3, ABHD6 (Mus musculus, UniProt Q8R2Y0); experiment: In vitro competitive activity-based protein profiling, mouse brain proteome (ABHD6); details: mouse brain proteome; concentration not given (μM)
T3 construct: Brain; from tissue; host or cells: mouse brain proteome
T3 sequence (Q8R2Y0 1-336): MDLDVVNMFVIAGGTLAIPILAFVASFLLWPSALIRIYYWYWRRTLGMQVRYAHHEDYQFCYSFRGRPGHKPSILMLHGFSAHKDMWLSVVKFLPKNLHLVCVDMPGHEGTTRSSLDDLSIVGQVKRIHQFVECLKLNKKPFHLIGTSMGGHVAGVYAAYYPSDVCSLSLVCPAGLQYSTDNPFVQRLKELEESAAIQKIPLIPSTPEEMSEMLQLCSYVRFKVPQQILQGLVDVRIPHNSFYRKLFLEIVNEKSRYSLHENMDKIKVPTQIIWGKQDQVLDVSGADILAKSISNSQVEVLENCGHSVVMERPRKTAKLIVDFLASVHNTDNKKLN
Description: [The source words this procedure for another target and reports this target under the same test.] In Vitro Competitive Activity-Based Protein Profiling.
Proteomes (human prefrontal cortex or cell membrane fractions) (50 μL, 1.0 mg/mL total protein concentration) were preincubated with varying concentrations of inhibitors at 37° C. After 30 min, FP-Rh or HT-01 (1.0 μL, 50 μM in DMSO) was added and the mixture was incubated for another 30 min at room temperature. Reactions were quenched with SDS loading buffer (15 μL-4×) and run on SDS-PAGE.

[1] = prefrontal cortex (PFC) proteome

## O=C(OC(C(F)(F)F)C(F)(F)F)N1CCC2(CC1)CCN(C(=O)c1ccc(C(F)(F)F)c(Cl)c1)C2 [Example 109, 1,1,1,3,3,3-Hexafluoropropan-2-yl 2-(3-chloro-4-(trifluoromethyl)benzoyl)-2,8-diazaspiro[4.5]decane-8-carboxylate]
MAGL; [1]
  % Inh MGLL PFC (Human, μM): ### (### is ≥75%)
MGLL
  % Inh MGLL Brain (Mouse, μM): ### (### is ≥75%)
ABHD6
  % Inh ABHD6 Brain (Mouse, μM): ### (### is ≥75%)

## CC1(OCc2ccc(Cl)cc2C2(C(=O)O)CCCC2)CCN(C(=O)OC(C(F)(F)F)C(F)(F)F)CC1 [Example 146, 1-(5-Chloro-2-{[(1-{[(1,1,1,3,3,3-hexafluoropropan-2-yl)oxy]carbonyl}-4-methylpiperidin-4-yl)oxy]methyl}phenyl) cyclopentane-1-carboxylic acid]
MAGL; PC3 cell proteome
  % Inh MGLL PC3 (Human, μM): ### (### is ≥75%)
MGLL
  % Inh MGLL Brain (Mouse, μM): ### (### is ≥75%)
ABHD6
  % Inh ABHD6 Brain (Mouse, μM): ## (## is between 25 and 75%)

## CC1(C(=O)O)CCCN(c2cc(C(F)(F)F)ccc2CN2CC3(CCN(C(=O)OC(C(F)(F)F)C(F)(F)F)CC3)C2)C1 (stereo not drawn) [Example 112, l-(2-((7-(((1,1,1,3,3,3-Hexafluoropropan-2-yl)oxy)carbonyl)-2,7-diazaspiro[3.5]nonan-2-yl)methyl)-5-(trifluoromethyl)phenyl)-3-methylpiperidine-3-carboxylic acid]
MAGL; [1]
  % Inh MGLL PFC (Human, μM): ### (### is ≥75%)
MGLL
  % Inh MGLL Brain (Mouse, μM): ### (### is ≥75%)
ABHD6
  % Inh ABHD6 Brain (Mouse, μM): ## (## is between 25 and 75%)

## O=C(O)[C@@H]1CCCN(c2cc(C(F)(F)F)ccc2CN2CC3(CCN(C(=O)OC(C(F)(F)F)C(F)(F)F)CC3)C2)C1 [Example 107, (R)-1-(2-((7-(((1,1,1,3,3,3-Hexafluoropropan-2-yl)oxy)carbonyl)-2,7-diazaspiro[3,5]nonan-2-yl)methyl)-5-(trifluoromethyl)phenyl) piperidine-3-carboxylic acid]
MAGL; [1]
  % Inh MGLL PFC (Human, μM): ### (### is ≥75%)
MGLL
  % Inh MGLL Brain (Mouse, μM): ### (### is ≥75%)
ABHD6
  % Inh ABHD6 Brain (Mouse, μM): # (# is ≤25%)

## O=C(O)CN1CCC2(CCN(c3cc(C(F)(F)F)ccc3CN3CCCC34CCN(C(=O)OC(C(F)(F)F)C(F)(F)F)CC4)CC2)C1 [Example 153, 2-(8-(2-((8-(((1,1,1,3,3,3-Hexafluoropropan-2-yl)oxy)carbonyl)-1,8-diazaspiro[4.5]decan-1-yl)methyl)-5-(trifluoromethyl)phenyl)-2,8-diazaspiro[4.5]decan-2-yl)acetic acid]
MAGL; [1]
  % Inh MGLL PFC (Human, μM): ### (### is ≥75%)
MGLL
  % Inh MGLL Brain (Mouse, μM): ### (### is ≥75%)
ABHD6
  % Inh ABHD6 Brain (Mouse, μM): # (# is ≤25%)

## CN(Cc1ccc(C(F)(F)F)cc1N1CC2CC1CN2CC(=O)O)C1(C)CCN(C(=O)OC(C(F)(F)F)C(F)(F)F)CC1 (stereo not drawn) [Example 27, 2-(5-(2-(((1-(((1,1,1,3,3,3-Hexafluoropropan-2-yl)oxy)carbonyl)-4-methylpiperidin-4-yl)(methyl)amino)methyl)-5-(trifluoromethyl)phenyl)-2,5-diazabicyclo[2.2.1]heptan-2-yl)acetic acid]
MAGL; PC3 cell proteome
  IC50 MGLL PC3 (Human, μM): * * *
  % Inh MGLL PC3 (Human, μM): ### (### is ≥75%)
MAGL; [1]
  IC50 MGLL PFC (Human, μM): * * *
MGLL
  % Inh MGLL Brain (Mouse, μM): ### (### is ≥75%)
ABHD6
  % Inh ABHD6 Brain (Mouse, μM): ### (### is ≥75%)

## O=C(O)CN1CC2(CCN(c3cc(CN4CCCC45CCN(C(=O)OC(C(F)(F)F)C(F)(F)F)CC5)cc(C(F)(F)F)c3)CC2)C1 [Example 158, 2-(7-(3-((8-(((1,1,1,3,3,3-Hexafluoropropan-2-yl)oxy)carbonyl)-1,8-diazaspiro[4.5]decan-1-yl)methyl)-5-(trifluoromethyl)phenyl)-2,7-diazaspiro[3,5]nonan-2-yl)acetic acid]
MAGL; [1]
  % Inh MGLL PFC (Human, μM): ### (### is ≥75%)
MGLL
  % Inh MGLL Brain (Mouse, μM): ### (### is ≥75%)
ABHD6
  % Inh ABHD6 Brain (Mouse, μM): # (# is ≤25%)

## O=C(O)C1CCN(c2cc(CN3CCC4(CC3)CCN(C(=O)OC(C(F)(F)F)C(F)(F)F)C4)ccc2C(F)(F)F)CC1 [Example 221, 1-(5-((2-(((1,1,1,3,3,3-Hexafluoropropan-2-yl)oxy)carbonyl)-2.8-diazaspiro[4.5]decan-8-yl)methyl)-2-(trifluoromethyl)phenyl) piperidine-4-carboxylic acid]
MAGL; [1]
  % Inh MGLL PFC (Human, μM): ### (### is ≥75%)
MGLL
  % Inh MGLL Brain (Mouse, μM): ### (### is ≥75%)
ABHD6
  % Inh ABHD6 Brain (Mouse, μM): ### (### is ≥75%)

## CN(Cc1ccc(C(F)(F)F)cc1N1CCOC(C(=O)O)C1)C1(C)CCN(C(=O)OC(C(F)(F)F)C(F)(F)F)CC1 (stereo not drawn) [Example 108, 4-(2-(((1-(((1,1,1,3,3,3-Hexafluoropropan-2-yl)oxy)carbonyl)-4-methylpiperidin-4-yl)(methyl)amino)methyl)-5-(trifluoromethyl)phenyl) morpholine-2-carboxylic acid]
MAGL; [1]
  % Inh MGLL PFC (Human, μM): ### (### is ≥75%)
MGLL
  % Inh MGLL Brain (Mouse, μM): ### (### is ≥75%)
ABHD6
  % Inh ABHD6 Brain (Mouse, μM): ## (## is between 25 and 75%)

## CC(C)(C#Cc1c(Cl)cccc1CN1CCCC12CCN(C(=O)OC(C(F)(F)F)C(F)(F)F)CC2)C(=O)O [Example 1, 4-(2-Chloro-6-((8-(((1,1,1,3,3,3-hexafluoropropan-2-yl)oxy)carbonyl)-1,8-diazaspiro[4.5]decan-1-yl)methyl)phenyl)-2,2-dimethylbut-3-ynoic acid]
MAGL; PC3 cell proteome
  % Inh MGLL PC3 (Human, μM): ### (### is ≥75%)
MGLL
  % Inh MGLL Brain (Mouse, μM): ### (### is ≥75%)
ABHD6
  % Inh ABHD6 Brain (Mouse, μM): # (# is ≤25%)

## CN(Cc1cc(N2CCOC(C)(C(=O)O)C2)cc(C(F)(F)F)c1)C1(C)CCN(C(=O)OC(C(F)(F)F)C(F)(F)F)CC1 (stereo not drawn) [Example 139, 4-(3-(((1-(((1,1,1,3,3,3-Hexafluoropropan-2-yl)oxy)carbonyl)-4-methylpiperidin-4-yl)(methyl)amino)methyl)-5-(trifluoromethyl)phenyl)-2-methylmorpholine-2-carboxylic acid]
MAGL; [1]
  % Inh MGLL PFC (Human, μM): ### (### is ≥75%)
MGLL
  % Inh MGLL Brain (Mouse, μM): ### (### is ≥75%)
ABHD6
  % Inh ABHD6 Brain (Mouse, μM): ## (## is between 25 and 75%)

## O=C(O)[C@H]1CCCN(c2cc(CN3CC4(CCN(C(=O)OC(C(F)(F)F)C(F)(F)F)CC4)C3)cc(C(F)(F)F)c2)C1 [Example 106, (S)-1-(3-((7-(((1,1,1,3,3,3-Hexafluoropropan-2-yl)oxy)carbonyl)-2,7-diazaspiro[3,5]nonan-2-yl)methyl)-5-(trifluoromelhyl)phenyl) piperidine-3-carboxylic acid]
MAGL; [1]
  % Inh MGLL PFC (Human, μM): ### (### is ≥75%)
MGLL
  % Inh MGLL Brain (Mouse, μM): ### (### is ≥75%)
ABHD6
  % Inh ABHD6 Brain (Mouse, μM): ### (### is ≥75%)

## O=C(O)[C@@H]1CCCN1C1CCN(c2cc(C(F)(F)F)ccc2CN2CCCC23CCN(C(=O)OC(C(F)(F)F)C(F)(F)F)CC3)CC1 [Example 164, (1-(2-((8-(((1,1,1,3,3,3-Hexafluoropropan-2-yl)oxy)carbonyl)-1,8-diazaspiro[4.5]decan-1-yl)methyl)-5-(trifluoromethyl)phenyl)piperidin-4-yl)-L-proline]
MAGL; PC3 cell proteome
  % Inh MGLL PC3 (Human, μM): ### (### is ≥75%)
MAGL; PC3 cell proteome, read-out: IC50 MGLL PC3 (Human)
  IC50: < 100 nM
MGLL
  % Inh MGLL Brain (Mouse, μM): ### (### is ≥75%)
ABHD6
  % Inh ABHD6 Brain (Mouse, μM): # (# is ≤25%)
